Test results from the NIST ThermoML archive (doi:10.1021/je700145e).

Conditions: Liquid

CCCCC(C)O (stereo unspecified) [2-hexanol]
Conditions	mass density [kg/m3]
313.13 K, 1010 kPa	799.26
313.13 K, 2006 kPa	800.05
313.13 K, 2999 kPa	800.83
313.13 K, 4008 kPa	801.59
313.13 K, 4999 kPa	802.35
313.13 K, 5986 kPa	803.12
313.13 K, 7000 kPa	803.86
313.13 K, 8010 kPa	804.64
313.13 K, 9026 kPa	805.38
313.13 K, 10004 kPa	806.09
313.13 K, 11005 kPa	806.84
313.13 K, 12001 kPa	807.56
313.13 K, 13010 kPa	808.28
313.13 K, 14002 kPa	808.98
313.13 K, 14998 kPa	809.67
313.13 K, 16001 kPa	810.39
313.13 K, 17006 kPa	811.08
313.13 K, 18000 kPa	811.7
313.13 K, 19005 kPa	812.39
313.13 K, 20015 kPa	813.1
313.13 K, 21029 kPa	813.74
313.13 K, 22004 kPa	814.4
323.09 K, 1037 kPa	791
323.09 K, 2000 kPa	791.79
323.09 K, 3010 kPa	792.63
323.09 K, 4029 kPa	793.48
323.09 K, 5004 kPa	794.27
323.09 K, 6020 kPa	795.1
323.09 K, 7007 kPa	795.84
323.09 K, 8009 kPa	796.68
323.09 K, 9017 kPa	797.48
323.09 K, 10003 kPa	798.25
323.09 K, 11001 kPa	799
323.09 K, 12000 kPa	799.77
323.09 K, 13021 kPa	800.56
323.09 K, 14001 kPa	801.3
323.09 K, 15002 kPa	802
323.09 K, 16000 kPa	802.74
323.09 K, 17004 kPa	803.48
323.09 K, 18008 kPa	804.21
323.09 K, 19001 kPa	804.9
323.09 K, 20011 kPa	805.62
323.09 K, 21003 kPa	806.31
323.09 K, 22004 kPa	807.01
333.04 K, 1055 kPa	782.56
333.04 K, 2007 kPa	783.43
333.04 K, 3005 kPa	784.28
333.04 K, 4007 kPa	785.21
333.04 K, 5015 kPa	786.06
333.04 K, 6009 kPa	786.93
333.04 K, 7006 kPa	787.77
333.04 K, 7998 kPa	788.61
333.04 K, 9006 kPa	789.47
333.04 K, 10004 kPa	790.32
333.04 K, 11007 kPa	791.11
333.04 K, 12012 kPa	791.93
333.04 K, 13003 kPa	792.72
333.04 K, 14008 kPa	793.51
333.04 K, 15005 kPa	794.3
333.04 K, 16001 kPa	795.06
333.04 K, 17006 kPa	795.85
333.04 K, 18010 kPa	796.61
333.04 K, 19002 kPa	797.35
333.04 K, 20000 kPa	798.08
333.04 K, 21000 kPa	798.82
333.04 K, 22004 kPa	799.56
342.98 K, 1032 kPa	774.05
342.98 K, 2015 kPa	775.01
342.98 K, 3012 kPa	775.95
342.98 K, 4017 kPa	776.87
342.98 K, 5013 kPa	777.79
342.98 K, 6012 kPa	778.72
342.98 K, 7025 kPa	779.62
342.98 K, 8000 kPa	780.47
342.98 K, 9000 kPa	781.35
342.98 K, 9996 kPa	782.25
342.98 K, 11020 kPa	783.12
342.98 K, 11999 kPa	783.92
342.98 K, 12996 kPa	784.76
342.98 K, 14007 kPa	785.6
342.98 K, 15003 kPa	786.41
342.98 K, 16005 kPa	787.17
342.98 K, 17002 kPa	787.98
342.98 K, 18010 kPa	788.76
342.98 K, 19005 kPa	789.49
342.98 K, 20010 kPa	790.27
342.98 K, 21006 kPa	791
342.98 K, 22005 kPa	791.75
352.86 K, 1053 kPa	765.06
352.86 K, 2014 kPa	766.05
352.86 K, 3019 kPa	767.09
352.86 K, 4033 kPa	768.08
352.86 K, 4996 kPa	769.01
352.86 K, 6006 kPa	770.06
352.86 K, 7013 kPa	771.02
352.86 K, 8004 kPa	771.95
352.86 K, 9035 kPa	772.93
352.86 K, 10009 kPa	773.84
352.86 K, 11007 kPa	774.75
352.86 K, 12007 kPa	775.66
352.86 K, 12999 kPa	776.54
352.86 K, 14012 kPa	777.47
352.86 K, 15010 kPa	778.33
352.86 K, 16003 kPa	779.21
352.86 K, 17002 kPa	780.07
352.86 K, 18017 kPa	780.92
352.86 K, 19005 kPa	781.75
352.86 K, 20014 kPa	782.58
352.86 K, 21013 kPa	783.39
352.86 K, 22010 kPa	784.18
362.73 K, 1075 kPa	754.97
362.73 K, 2006 kPa	756.02
362.73 K, 3018 kPa	757.16
362.73 K, 4034 kPa	758.26
362.73 K, 5016 kPa	759.29
362.73 K, 6066 kPa	760.41
362.73 K, 6998 kPa	761.37
362.73 K, 8041 kPa	762.44
362.73 K, 9014 kPa	763.43
362.73 K, 10001 kPa	764.37
362.73 K, 11026 kPa	765.39
362.73 K, 12000 kPa	766.35
362.73 K, 13010 kPa	767.31
362.73 K, 13999 kPa	768.28
362.73 K, 15006 kPa	769.21
362.73 K, 16006 kPa	770.12
362.73 K, 17005 kPa	771.02
362.73 K, 18000 kPa	771.92
362.73 K, 19003 kPa	772.82
362.73 K, 20017 kPa	773.7
362.73 K, 21006 kPa	774.56
362.73 K, 22010 kPa	775.42

CCCCCCCCO [octan-1-ol]
Conditions	mass density [kg/m3]
313.14 K, 1004 kPa	811.26
313.14 K, 2019 kPa	811.95
313.14 K, 3000 kPa	812.59
313.14 K, 4020 kPa	813.22
313.14 K, 4995 kPa	813.89
313.14 K, 6000 kPa	814.53
313.14 K, 7007 kPa	815.21
313.14 K, 8012 kPa	815.83
313.14 K, 8994 kPa	816.51
313.14 K, 10014 kPa	817.19
313.14 K, 11007 kPa	817.79
313.14 K, 12000 kPa	818.42
313.14 K, 12997 kPa	819.05
313.14 K, 14001 kPa	819.67
313.14 K, 14997 kPa	820.27
313.14 K, 16002 kPa	820.89
313.14 K, 17001 kPa	821.48
313.14 K, 17997 kPa	822.1
313.14 K, 19004 kPa	822.69
313.14 K, 20007 kPa	823.28
313.14 K, 21004 kPa	823.86
323.09 K, 1007 kPa	804.26
323.09 K, 2016 kPa	804.97
323.09 K, 3019 kPa	805.7
323.09 K, 4025 kPa	806.4
323.09 K, 5012 kPa	807.07
323.09 K, 6093 kPa	807.82
323.09 K, 7143 kPa	808.56
323.09 K, 8009 kPa	809.12
323.09 K, 8989 kPa	809.77
323.09 K, 10014 kPa	810.47
323.09 K, 11031 kPa	811.14
323.09 K, 12010 kPa	811.82
323.09 K, 13005 kPa	812.44
323.09 K, 14003 kPa	813.11
323.09 K, 15012 kPa	813.76
323.09 K, 16009 kPa	814.4
323.09 K, 17005 kPa	815.04
323.09 K, 18013 kPa	815.66
323.09 K, 19003 kPa	816.26
323.09 K, 20025 kPa	816.9
323.09 K, 21081 kPa	817.56
323.09 K, 22009 kPa	818.09
333.05 K, 1038 kPa	797.31
333.05 K, 2029 kPa	798.03
333.05 K, 2999 kPa	798.76
333.05 K, 4033 kPa	799.51
333.05 K, 5020 kPa	800.25
333.05 K, 6014 kPa	800.97
333.05 K, 7029 kPa	801.69
333.05 K, 8011 kPa	802.44
333.05 K, 9005 kPa	803.11
333.05 K, 10022 kPa	803.83
333.05 K, 11011 kPa	804.55
333.05 K, 12021 kPa	805.23
333.05 K, 13022 kPa	805.92
333.05 K, 14031 kPa	806.61
333.05 K, 15010 kPa	807.28
333.05 K, 16023 kPa	807.92
333.05 K, 17012 kPa	808.59
333.05 K, 18035 kPa	809.23
333.05 K, 19009 kPa	809.87
333.05 K, 20002 kPa	810.51
333.05 K, 21011 kPa	811.15
333.05 K, 22019 kPa	811.82
343.03 K, 1049 kPa	790.6
343.03 K, 2003 kPa	791.16
343.03 K, 2981 kPa	791.93
343.03 K, 4017 kPa	792.68
343.03 K, 5000 kPa	793.37
343.03 K, 6005 kPa	794.05
343.03 K, 7018 kPa	794.88
343.03 K, 8104 kPa	795.68
343.03 K, 9014 kPa	796.44
343.03 K, 10022 kPa	797.1
343.03 K, 11028 kPa	797.87
343.03 K, 11997 kPa	798.58
343.03 K, 13030 kPa	799.3
343.03 K, 14005 kPa	800
343.03 K, 15002 kPa	800.66
343.03 K, 16032 kPa	801.38
343.03 K, 17016 kPa	801.99
343.03 K, 18012 kPa	802.68
343.03 K, 19005 kPa	803.29
343.03 K, 20018 kPa	803.98
343.03 K, 21014 kPa	804.61
343.03 K, 22004 kPa	805.23
352.89 K, 1023 kPa	782.71
352.89 K, 2011 kPa	783.55
352.89 K, 3032 kPa	784.42
352.89 K, 4022 kPa	785.42
352.89 K, 5005 kPa	786.18
352.89 K, 6026 kPa	787.13
352.89 K, 7003 kPa	787.9
352.89 K, 8016 kPa	788.71
352.89 K, 9007 kPa	789.47
352.89 K, 10003 kPa	790.22
352.89 K, 11022 kPa	791
352.89 K, 12170 kPa	791.78
352.89 K, 13015 kPa	792.51
352.89 K, 14018 kPa	793.24
352.89 K, 15009 kPa	794
352.89 K, 16023 kPa	794.74
352.89 K, 17010 kPa	795.48
352.89 K, 18002 kPa	796.16
352.89 K, 19029 kPa	796.9
352.89 K, 20046 kPa	797.63
352.89 K, 21023 kPa	798.3
362.77 K, 1051 kPa	775.67
362.77 K, 2025 kPa	776.41
362.77 K, 3016 kPa	777.19
362.77 K, 4009 kPa	778.05
362.77 K, 4974 kPa	778.77
362.77 K, 6005 kPa	779.51
362.77 K, 7006 kPa	780.3
362.77 K, 8011 kPa	780.95
362.77 K, 9008 kPa	781.79
362.77 K, 10034 kPa	782.62
362.77 K, 11013 kPa	783.32
362.77 K, 11987 kPa	784.03
362.77 K, 13015 kPa	784.77
362.77 K, 14006 kPa	785.51
362.77 K, 14997 kPa	786.3
362.77 K, 16001 kPa	787.03
362.77 K, 17013 kPa	787.79
362.77 K, 17997 kPa	788.55
362.77 K, 19000 kPa	789.33
362.77 K, 20023 kPa	790.04
362.77 K, 21004 kPa	790.83
